In one data set the target is T1, SARS-CoV-2 PLpro (Severe acute respiratory syndrome coronavirus 2, UniProt P0DTD1).
T1 construct: containing 60 nM papain-like protease
Kind of data set: biochemical.

The test system of data set [1] is human Hep G2 cells (ATCC HB-8065). Nature of the data set: Cytotoxicity in Hep G2 cells (CellTiter-Glo). The class given is cell-based. A general note: In ATP-based viability assays light output follows the ATP content of the culture.
[2] abbreviates: 60 nM papain-like protease, 50 μM Z-RLRGG-AMC, pH 7.5, 37° C., read-out: SARS-CoV-2 PLpro IC50.
Setting [3] is: Hep G2 cells, 100 μM test article, 24-hour exposure.

SMILES strings stand for the structures. Counter-ions that a name gives are not always drawn. Like-named read-outs stand apart in the source and are kept apart here. Where only a bound is given, the exact number is not on record here.

In the case of `Cc1ccc(C2CCNCC2)cc1C(=O)N[C@H](C)c1cccc2ccccc12` [Example 156, 2-Methyl-N-[(1R)-1-(1-napthyl)ethyl]-5-(4-piperidyl)benzamide], the IC50 (in general, the concentration that gives 50% inhibition) at SARS-CoV-2 PLpro (setting [2]) was less than 2 µM. Moreover, in data set [1] (setting [3]), the “% Cell Viability” value came out at 0.6%.
On the same counts, the results for `COc1ccc(Br)cc1[C@@H](C)NC(=O)c1cc(N2CCN(C)CC2)ccc1C` [Example 195, N-[(1R)-1-(5-Bromo-2-methoxy-phenyl)ethyl]-2-methyl-5-(4-methylpiperazin-1-yl)benzamide] are less than 2 µM and 41.5%.
On the same counts, the results for `COc1ccc([C@@H](C)NC(=O)c2cc(N3CCN(C)CC3)ccc2C)cc1C1CCNCC1` [Example 237, N-[(1R)-1-[4-Methoxy-3-(4-piperidyl)phenyl]ethyl]-2-methyl-5-(4-methylpiperazin-1-yl)benzamide] are less than 5 µM and 87.9%.
In the same order, the values of `COc1cc(-c2cnn(C)c2)cc([C@@H](C)NC(=O)c2cc(N3CCCN(C)CC3)ccc2C)c1` [Example 247, N-[(1R)-1-[3-Methoxy-5-(1-methylpyrazol-4-yl)phenyl]ethyl]-2-methyl-5-(4-methyl-1,4-diazepan-1-yl)benzamide] are less than 2 µM and 56.7%.
Consider `C[C@@H](NC(=O)c1cccc(N2CCNCC2)c1)c1cccc2ccccc12` [Example 158, N-[(1R)-1-(1-Naphthyl)ethyl]-3-piperazin-1-yl-benzamide Hydrochloride Salt], for which the IC50 at SARS-CoV-2 PLpro (setting [2]) was less than 5 µM. Moreover, in data set [1] (setting [3]), the “% Cell Viability” value is listed as 0.8%.
In the same order, the values of `Cc1ccc(N2CCN(C)CC2)cc1C(=O)N[C@H](C)c1cccc(-c2cccc(C(=O)N(C)C)c2)c1` [Example 47, N-[(1R)-1-[3-[3-(Dimethylcarbamoyl)phenyl]phenyl]ethyl]-2-methyl-5-(4-methylpiperazin-1-yl)benzamide] are less than 2 µM and 54.0%.
On the same counts, the results for `Cc1ccc(N2CCN(CCCC(=O)O)CC2)cc1C(=O)N[C@H](C)c1cccc2ccccc12` [Example 172, 4-[4-[4-Methyl-3-[[(1R)-1-(1-naphthyl)ethyl]carbamoyl]phenyl]piperazin-1-yl]butanoic Acid] are less than 2 µM and 104.6%.
In the same order, the values of `Cc1ccc(N2CCN(C)CC2)cc1C(=O)N[C@H](C)c1cccc(-c2cc[nH]n2)c1` [Example 49, 2-Methyl-5-(4-methylpiperazin-1-yl)-N-[(1R)-1-[3-(1H-pyrazol-3-yl)phenyl]ethyl]benzamide] are less than 2 µM and 82.7%.
For `Cc1ccc(N2CCN(C)CC2)cc1C(=O)N[C@H](C)c1cccc(-c2cccc(CO)c2)c1` [Example 42, N-[(1R)-1-[3-[3-(Hydroxymethyl)phenyl]phenyl]ethyl]-2-methyl-5-(4-methylpiperazin-1-yl)benzamide], the IC50 at SARS-CoV-2 PLpro (setting [2]) was less than 2 µM. Moreover, in data set [1] (setting [3]), the “% Cell Viability” value is 64.1%.
On the same counts, the results for `Cc1ccc(N2CCN(C)CC2)cc1C(=O)N[C@H](C)c1cccc(-c2ccc(=O)[nH]c2)c1` [Example 66, 2-Methyl-5-(4-methylpiperazin-1-yl)-N-[(1R)-1-[3-(6-oxo-1,6-dihydropyridin-3-yl)phenyl]ethyl]benzamide] are less than 2 µM and 100.8%.
On the same counts, the results for `COc1cc(-c2ccnn2C)cc([C@@H](C)NC(=O)c2cc(N3C[C@H]4C[C@@H]3CN4C)ccc2C)c1` [Example 248, N-[(1R)-1-[3-Methoxy-5-(2-methylpyrazol-3-yl)phenyl]ethyl]-2-methyl-5-[(1R,4R)-5-methyl-2,5-diazabicyclo[2.2.1]heptan-2-yl]benzamide] are less than 2 µM and 55.3%.
In the same order, the values of `COc1ccc([C@@H](C)NC(=O)c2cc(N3CCN(C)CC3)ccc2C)cc1O` [Example 291, N-[(1R)-1-(3-Hydroxy-4-methoxy-phenyl)ethyl]-2-methyl-5-(4-methylpiperazin-1-yl)benzamide] are less than 5 µM and 97.4%.
Turning to `Cc1ccc(N2CCN(C)CC2)cc1C(=O)N[C@H](C)c1cccc(F)c1` [Example 25, N-[(1R)-1-(3-Fluorophenyl)ethyl]-2-methyl-5-(4-methylpiperazin-1-yl)benzamide], at SARS-CoV-2 PLpro (setting [2]), the IC50 was less than 20 µM. For the same compound, in data set [1] (setting [3]), the “% Cell Viability” value came out at 95.2%.
On to `Cc1ccc(N2CCN(C)CC2)cc1C(=O)N[C@H](C)c1ccc(Br)cc1` [Example 24, N-[(1R)-1-(4-Bromophenyl)ethyl]-2-methyl-5-(4-methylpiperazin-1-yl)benzamide], for which the IC50 at SARS-CoV-2 PLpro (setting [2]) was less than 10 µM. In addition, the “% Cell Viability” value in data set [1] (setting [3]) came to 70.7%.
In the same order, the values of `COc1ccc([C@@H](C)NC(=O)c2cc(N3C[C@@H]4C[C@H]3CN4)ccc2C)cc1OC` [Example 18, 5-[(1S,4S)-2,5-Diazabicyclo[2.2.1]heptan-2-yl]-N-[(1R)-1-(3,4-dimethoxyphenyl)ethyl]-2-methyl-benzamide] are less than 20 µM and 119.3%.
With `Cc1ccc(N2CCN(C)CC2)cc1C(=O)N[C@H](C)c1cccc(-c2cccc(C(=O)NCCN)c2)c1` [Example 98, N-[(1R)-1-[3-[3-(2-Aminoethylcarbamoyl)phenyl]phenyl]eth-yl]-2-methyl-5-(4-methylpiperazin-1-yl)benzamide], the IC50 on SARS-CoV-2 PLpro (setting [2]) was less than 2 µM. The “% Cell Viability” value in data set [1] (setting [3]) worked out at 98.5%.
In the same order, the values of `Cc1ccc(N2CCN(C)CC2)cc1C(=O)N[C@H](C)c1cccc(-c2ccc(N)nc2)c1` [Example 67, N-[(1R)-1-[3-(6-Amino-3-pyridyl)phenyl]ethyl]-2-methyl-5-(4-methylpiperazin-1-yl)benzamide] are less than 2 µM and 58.7%.
In the same order, the values of `COc1c(-c2cnn(C)c2)cccc1[C@@H](C)NC(=O)c1cc(N2CCN(C)CC2)ccc1C` [Example 226, N-[(1R)-1-[2-Methoxy-3-(1-methylpyrazol-4-yl)phenyl]ethyl]-2-methyl-5-(4-methylpiperazin-1-yl)benzamide] are less than 10 µM and 91.4%.
At SARS-CoV-2 PLpro, `C[C@@H](NC(=O)c1cc(C2=CCN(C)CC2)ccc1Cl)c1cccc2ccccc12` [Example 144, 2-Chloro-5-(1-methyl-3,6-dihydro-2H-pyridin-4-yl)-N-[(1R)-1-(1-naphthyl)ethyl]benzamide] gave a 50% inhibitory concentration (IC50) of less than 10 µM. The “% Cell Viability” value in data set [1] (human, 24 h, 100 μM) was found to be 1.6%.
Consider `Cc1ccc(N2CCN(C)CC2)cc1C(=O)N[C@H](C)c1cccc(-c2cccc(N3CCN(CCC(=O)O)CC3)c2)c1` [Example 167, 3-[4-[3-[3-[(1R)-1-[[2-Methyl-5-(4-methylpiperazin-1-yl)benzoyl]amino]ethyl]phenyl]phe-nyl]piperazin-1-yl]propanoic acid], for which, on SARS-CoV-2 PLpro (setting [2]), the IC50 was less than 2 µM. Further, the “% Cell Viability” value in data set [1] (setting [3]) was 110.4%.
In the same order, the values of `CNC(=O)c1cccc([C@@H](C)NC(=O)c2cc(N3CCN(C)CC3)ccc2C)c1` [Example 312, 2-Methyl-N-[(1R)-1-[3-(methylcarbamoyl)phenyl]ethyl]-5-(4-methylpiperazin-1-yl)benzamide] are less than 10 µM and 78.3%.
Regarding `COc1ccc([C@@H](C)NC(=O)c2cc(N3C[C@H]4C[C@@H]3CN4C)ccc2C)cc1Br` [Example 181, N-[(1R)-1-(3-Bromo-4-methoxy-phenyl)ethyl]-2-methyl-5-[(1R,4R)-5-methyl-2,5-diazabicyclo[2.2.1]heptan-2-yl]benzamide], at SARS-CoV-2 PLpro (setting [2]), the IC50 was less than 2 µM. Also, the “% Cell Viability” value in data set [1] (setting [3]) came to 18.9%.
In the same order, the values of `COc1ccc([C@@H](C)NC(=O)c2cc(N3CCN(CCO)CC3)ccc2C)cc1-c1cnn(C)c1` [Example 273, 5-[4-(2-Hydroxyethyl)piperazin-1-yl]-N-[(1R)-1-[4-methoxy-3-(1-methylpyrazol-4-yl)phenyl]ethyl]-2-methyl-benzamide] are less than 5 µM and 92.6%.
On the same counts, the results for `Cc1ccc(N2CCOCC2)cc1C(=O)N[C@H](C)c1cccc2ccccc12` [Example 116, 2-Methyl-5-morpholino-N-[(1R)-1-(1-naphthyl)ethyl]benzamide] are less than 10 µM and 66.6%.
In the same order, the values of `Cc1ccc(N2CCN(C)CC2)cc1C(=O)N[C@H](C)c1ccc(Cl)c(Br)c1` [Example 201, N-[(1R)-1-(3-Bromo-4-chloro-phenyl)ethyl]-2-methyl-5-(4-methylpiperazin-1-yl)benzamide] are less than 2 µM and 1.0%.
In the case of `COCCNC(=O)c1cccc(-c2cccc([C@@H](C)NC(=O)c3cc(N4CCN(C)CC4)ccc3C)c2)c1` [Example 87, N-[(1R)-1-[3-[3-(2-Methoxyethylcarbamoyl)phenyl]phenyl]ethyl]-2-methyl-5-(4-methylpiperazin-1-yl)benzamide], at SARS-CoV-2 PLpro (setting [2]), the IC50 is less than 2 µM. The “% Cell Viability” value in data set [1] (setting [3]) is 74.6%.
Take `CNC(=O)CCc1cccc([C@@H](C)NC(=O)c2cc(N3CCN(C)CC3)ccc2C)c1` [Example 85, 2-Methyl-N-[(1R)-1-[3-[3-(methylamino)-3-oxo-propyl]phenyl]ethyl]-5-(4-methylpiperazin-1-yl)benzamide]: the half-maximal inhibitory concentration (IC50) at SARS-CoV-2 PLpro (setting [2]) was less than 10 µM. For the same compound, the “% Cell Viability” value in data set [1] (setting [3]) is listed as 85.1%.
`Cc1ccc(N2CCN(C)CC2)cc1C(=O)N[C@H](C)c1cccc(C#N)c1` [Example 34, N-[(1R)-1-(3-Cyanophenyl)ethyl]-2-methyl-5-(4-methylpiperazin-1-yl)benzamide]: the IC50 at SARS-CoV-2 PLpro (setting [2]) was less than 10 µM. Besides, the “% Cell Viability” value in data set [1] (setting [3]) worked out at 97.8%.
Turning to `C[C@@H](NC(=O)c1cccc(N2CCN(CCC(=O)O)CC2)c1)c1cccc2ccccc12` [Example 161, 3-[4-[3-[[(1R)-1-(1-Naphthyl)ethyl]carbamoyl]phenyl]piperazin-1-yl]propanoic Acid], the IC50 at SARS-CoV-2 PLpro (setting [2]) is less than 20 µM. In addition, the “% Cell Viability” value in data set [1] (setting [3]) turned out to be 97.9%.

These data come from patent publication US20240383852A1, “ANTI-VIRAL COMPOUNDS” (INFEX Therapeutics Limited, priority 2021, published 2024).
